Consider nine molecules from publication PMC10249031 (ACS Omega, 2023).

One may read the IC50 as the concentration needed to halve the response being measured.

Where two headings read alike, the source gives them in different places.

Data set [1] concerns A431 cells. The settings on record: 10 μM, 72 h, MTT.
Data set [2] addresses EGFR-TK (Homo sapiens, UniProt P00533). In words: ADP-Glo Kinase Assay, EGFR tyrosine kinase inhibition. The class given is biochemical. The settings on record: for EGFR-TK inhibitory activity (screening): at 1 μM, compared to erlotinib, n = 2. In general terms: ADP-Glo turns the ADP formed in a reaction into a luminescent signal.
Data set [3] relates to A431 cells. In words: cells. The settings on record: Homo sapiens, A-431, 72 h, read-out: IC50 A431.
Data set [4] relates to Vero cells. In words: MTT cytotoxicity assay, Vero normal cell line. The settings on record: Primates, 72 h, read-out: IC50 Vero. Type of data set: cell-based, monkey. On the technique in general: Formazan colour is commonly taken as a measure of viable cells.
Data set [5] relates to A549 cells. In words: MTT cytotoxicity assay, A549. The class given is cell-based, human. The settings on record: for Cell viability of A549: 10 μM.
The mark [6] stands for this setting: Homo sapiens, A549, 72 h, read-out: IC50 A549.

Chain of EGFR-TK (P00533 25-1210): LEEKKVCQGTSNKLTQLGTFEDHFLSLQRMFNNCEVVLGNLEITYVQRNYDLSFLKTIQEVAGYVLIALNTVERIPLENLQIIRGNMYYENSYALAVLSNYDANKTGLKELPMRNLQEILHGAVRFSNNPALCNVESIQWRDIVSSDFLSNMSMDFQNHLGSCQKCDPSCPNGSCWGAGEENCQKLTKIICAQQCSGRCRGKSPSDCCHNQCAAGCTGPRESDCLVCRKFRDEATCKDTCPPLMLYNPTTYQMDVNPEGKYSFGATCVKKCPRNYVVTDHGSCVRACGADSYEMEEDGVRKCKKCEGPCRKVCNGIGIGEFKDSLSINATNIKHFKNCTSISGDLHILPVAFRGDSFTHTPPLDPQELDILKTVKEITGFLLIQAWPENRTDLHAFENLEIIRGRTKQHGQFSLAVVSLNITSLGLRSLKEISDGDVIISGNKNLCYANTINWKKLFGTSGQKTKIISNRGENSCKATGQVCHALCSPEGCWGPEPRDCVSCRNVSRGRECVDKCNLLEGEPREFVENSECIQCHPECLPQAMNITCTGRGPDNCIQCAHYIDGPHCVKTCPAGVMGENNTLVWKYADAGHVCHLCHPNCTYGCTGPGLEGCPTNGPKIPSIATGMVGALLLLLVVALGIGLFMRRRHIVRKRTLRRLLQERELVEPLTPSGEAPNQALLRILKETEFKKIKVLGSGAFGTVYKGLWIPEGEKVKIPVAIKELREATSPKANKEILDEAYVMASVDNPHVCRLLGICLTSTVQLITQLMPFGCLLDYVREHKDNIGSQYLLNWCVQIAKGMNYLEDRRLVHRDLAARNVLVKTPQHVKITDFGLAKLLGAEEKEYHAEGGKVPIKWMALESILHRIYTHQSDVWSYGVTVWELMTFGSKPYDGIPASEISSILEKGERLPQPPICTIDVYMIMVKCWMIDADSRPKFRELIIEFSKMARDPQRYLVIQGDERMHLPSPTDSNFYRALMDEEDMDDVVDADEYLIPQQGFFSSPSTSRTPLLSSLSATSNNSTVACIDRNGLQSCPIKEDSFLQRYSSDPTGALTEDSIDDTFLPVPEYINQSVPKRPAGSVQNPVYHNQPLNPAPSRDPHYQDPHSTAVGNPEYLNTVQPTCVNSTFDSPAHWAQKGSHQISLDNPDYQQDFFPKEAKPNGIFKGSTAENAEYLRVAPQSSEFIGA

In the case of `COc1ccc(S(=O)(=O)c2c3c4ccccc4n(C)c(-c4ccccc4)c-3c3ccccc23)cc1` [SIQ3], the “Cell viability of A431” value in data set [1] was “more susceptible”. Besides, in data set [2], the “EGFR-TK inhibitory activity (screening)” value is given as “higher EGFR-TK inhibitory activity than erlotinib”. Further, the IC50 in data set [3] was 17.7 ± 0.35 µM; in data set [4], above 100 µM; in data set [5] (setting [6]) it was 33.5 ± 0.47 µM. Besides, in data set [5] (72 h, MTT), the “Cell viability of A549” value was “more vulnerable”.

As for `Cn1c(-c2ccccc2)c2c3ccccc3c(S(=O)(=O)c3ccc(Cl)cc3)c-2c2ccccc21` [SIQ5], the “Cell viability of A431” value in data set [1] was “more susceptible”. The “EGFR-TK inhibitory activity (screening)” value in data set [2] is given as “higher EGFR-TK inhibitory activity than erlotinib”. Further, the figures for the IC50 in data set [3], in data set [4] and in data set [5] (setting [6]) were 9.93 ± 0.45 µM, 8.06 ± 0.15 µM and 16.8 ± 0.41 µM, respectively. Also, the “Cell viability of A549” value in data set [5] (72 h, MTT) was “more vulnerable”.

On to `Cc1ccc(S(=O)(=O)c2c3c4ccccc4n(C)c(-c4ccccc4)c-3c3ccccc23)c(C)c1` [SIQ8], for which, in data set [2], the “EGFR-TK inhibitory activity (screening)” value was “higher EGFR-TK inhibitory activity than erlotinib”. The IC50 was 14.1 ± 0.73 µM in data set [3], 21.7 ± 0.5 µM in data set [4] and 27.2 ± 0.71 µM in data set [5] (setting [6]). Further, in data set [5] (72 h, MTT), the “Cell viability of A549” value was “more vulnerable”.

For the molecule `Cc1ccc(-c2c3c4ccccc4c(S(=O)(=O)c4ccc(C)cc4)c-3c3ccccc3n2C)cc1` [SIQ10], in data set [2], half-maximal inhibition (IC50) required 0.0214 ± 0.00574 µM and the “EGFR-TK inhibitory activity (screening)” value is reported as “higher EGFR-TK inhibitory activity than erlotinib”.

For the molecule `COc1ccc(-c2c3c4ccccc4c(S(=O)(=O)c4ccc(C)cc4)c-3c3ccccc3n2C)cc1` [SIQ11], in data set [2], the IC50 worked out at 0.0232 ± 0.00876 µM and the “EGFR-TK inhibitory activity (screening)” value is listed as “higher EGFR-TK inhibitory activity than erlotinib”.

For `Cc1ccc(S(=O)(=O)c2c3c4ccccc4n(C)c(-c4ccc(Cl)cc4)c-3c3ccccc23)cc1` [SIQ12], in data set [1], the “Cell viability of A431” value is “more susceptible”. Also, the “EGFR-TK inhibitory activity (screening)” value in data set [2] is on record as “higher EGFR-TK inhibitory activity than erlotinib”. Further, the results for the concentration for half-maximal inhibition (IC50) in data set [3], in data set [4] and in data set [5] (setting [6]) were 13.1 ± 0.5 µM, 7.25 ± 0.12 µM and 23.2 ± 0.42 µM, respectively. In addition, in data set [5] (72 h, MTT), the “Cell viability of A549” value is “more vulnerable”.

With `Cc1ccc(S(=O)(=O)c2c3c4ccccc4n(C)c(-c4ccc(C)cc4C)c-3c3ccccc23)cc1` [SIQ17], the “EGFR-TK inhibitory activity (screening)” value in data set [2] is reported as “higher EGFR-TK inhibitory activity than erlotinib”. For the same molecule, the IC50 in data set [3] was 19.2 ± 0.97 µM; in data set [4], above 100 µM; in data set [5] (setting [6]) it was 33 ± 0.59 µM. The “Cell viability of A549” value in data set [5] (72 h, MTT) is listed as “more vulnerable”.

As for `Cc1ccc(S(=O)(=O)c2c3c4cc(C)ccc4n(C)c(-c4ccccc4)c-3c3ccccc23)cc1` [SIQ19], the “Cell viability of A431” value in data set [1] is reported as “more susceptible”. In addition, the “EGFR-TK inhibitory activity (screening)” value in data set [2] is reported as “higher EGFR-TK inhibitory activity than erlotinib”. Also, the IC50 stood at 11.9 ± 0.41 µM in data set [3], 5.88 ± 0.33 µM in data set [4] and 29.3 ± 0.44 µM in data set [5] (setting [6]).

`C#Cc1cccc(Nc2ncnc3cc(OCCOC)c(OCCOC)cc23)c1` [erlotinib, reference compound]: the IC50 amounted to 35 ± 1.35 µM in data set [4]; 33.3 µM in data set [5] (Homo sapiens, A549, 72 h, read-out: IC50 A549, MTT, 72 h); 33.3 ± 1.88 µM in data set [5] (read-out: IC50 A549, MTT, 72 h).
